# Source: patent US5032398A, “Selective modification of the catalytic subunit of pertussis toxin” (priority 1986, dated 1991)
# What was measured:
# pertussis toxin = pertussis toxin (Bordetella pertussis, UniProt P04977); test: Inactivation of NADase activity by sulfhydryl reagents, 6 minutes or 18 hours at 0-4° (Example Eight); assay type: biochemical
# Protocol: Pertussis toxin was incubated at 37° C. for fifteen minutes as described in Example Six, and then a second incubation was begun by adding 10 μl buffer A with or without 12.5 mM iodoacetate, mixing the contents of the tube and lowering the temperature to 30° C. After fifteen minutes, the tubes were shifted to an ice bath for ten minutes. A third incubation was then begun by adding 10 μl buffer A containing 200 mM DTT to those tubes containing iodoacetate to scavenge the iodoacetate. To those tubes not containing iodoacetate during the second incubation, a mixture of 200 mM DTT and 12.5 mM iodoacetate in buffer A, previously incubated for an hour on ice, was added. The third incubation was continued for one hour on ice.
# The contents of each tube were then assayed for NADase activity by adding 40 μl of a reaction mix consisting of buffer A containing carbon-14 labelled NAD (final concentration in the 100 μl final volume was 25 μM), and 50 mM sodium chloride. Different reaction mixtures with various additions were used, so that in all tubes the final concentration of ATP was 1 mM and CHAPS was 1 weight percent. The assay was conducted at 37° C. for sixty minutes, and the released labelled nicotinimide was isolated and counted. The iced controls were formed by incubating pertussis toxin (1 μg) on ice in 10 mM sodium phosphate (pH 7) and 50 mM sodium chloride during the first three incubations. […] The first three incubations were done under a nitrogen atmosphere using degassed conditions, and the second and third incubations were done under subdued light.
# The procedure followed in Example Seven was repeated for this study, except that N-ethylmaleimide, chloroacetamide or chloroacetate were substituted for iodoacetate. After the 30° C. incubation, the tubes were either incubated for six minutes or eighteen hours at 0°-4° C. before the 10 μl of 200 mM DTT (with or without quenched reagent) was added. Those tubes receiving the DTT after six minutes were incubated for nineteen hours at 0°-4° C. prior to the NADase assay. Those receiving the DTT after eighteen hours were incubated with DTT for one hour, as in Example Seven. The tubes were then assayed for NADase activity at the same time.
# [1] = system: S1 -S5 subunits of the toxin; test: Labelled iodoacetate incorporation into toxin subunits, electrophoresis and x-ray film (Examples Two and Six); design: species or system Bordetella pertussis
# Sequence of S1 -S5 subunits of the toxin (P04977 35-269 limits assumed): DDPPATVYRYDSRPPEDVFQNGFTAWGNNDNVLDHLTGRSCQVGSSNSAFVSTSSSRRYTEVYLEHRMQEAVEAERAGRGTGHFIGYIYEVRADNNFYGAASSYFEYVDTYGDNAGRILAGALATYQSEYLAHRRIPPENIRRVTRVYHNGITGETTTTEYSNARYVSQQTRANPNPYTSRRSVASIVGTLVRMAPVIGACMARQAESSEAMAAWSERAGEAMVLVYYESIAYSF
# Sequence of S1 -S5 subunits of the toxin (P04978 28-226 limits assumed, further chain): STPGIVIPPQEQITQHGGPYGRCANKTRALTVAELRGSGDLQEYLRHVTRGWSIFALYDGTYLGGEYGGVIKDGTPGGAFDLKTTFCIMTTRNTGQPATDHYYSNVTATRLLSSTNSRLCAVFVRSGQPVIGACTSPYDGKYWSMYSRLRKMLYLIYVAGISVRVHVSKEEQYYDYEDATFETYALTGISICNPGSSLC
# Sequence of S1 -S5 subunits of the toxin (P04979 29-227 limits assumed, further chain): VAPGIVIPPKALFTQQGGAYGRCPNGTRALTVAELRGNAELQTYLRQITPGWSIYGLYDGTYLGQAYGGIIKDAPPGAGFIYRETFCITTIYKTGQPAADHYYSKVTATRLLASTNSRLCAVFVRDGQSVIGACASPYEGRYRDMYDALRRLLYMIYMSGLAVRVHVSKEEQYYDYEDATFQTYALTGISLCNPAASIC
# Sequence of S1 -S5 subunits of the toxin (P0A3R5 43-152 limits assumed, further chain): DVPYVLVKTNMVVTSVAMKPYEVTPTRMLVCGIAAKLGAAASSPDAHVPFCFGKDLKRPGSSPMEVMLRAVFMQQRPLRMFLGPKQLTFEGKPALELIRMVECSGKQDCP
# Sequence of S1 -S5 subunits of the toxin (P04981 35-133 limits assumed, further chain): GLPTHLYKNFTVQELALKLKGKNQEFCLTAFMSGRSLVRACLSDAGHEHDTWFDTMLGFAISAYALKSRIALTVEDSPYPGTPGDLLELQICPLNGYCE
# Protocol: Pertussis toxin (2.5 μg) was incubated for thirty minutes at 37° C. in 50 μl of 50 mM Tris-HCl (pH 8.0) with or without combinations of the activators ATP, CHAPS and DTT. During this incubation, ATP was 1 mM, CHAPS was 1 weight percent, and DTT was 0.5 mM, when present. Following this incubation, 75 nmol (1.34 microCi of iodo[^14 C]acetate and 25 μl of water were then added, and the tubes incubated for an additional thirty minutes under nitrogen gas at 30° C. in the dark. This labelling reaction was terminated by adding 1 ml of ice-cold water containing 7.5 mM non-radioactive iodoacetate, 2.5 μg bovine serum albumin, and 150 μg sodium deoxycholate. After ten minutes on ice, 100 μl 72% triochloroacetic acid was added, and the precipitate recovered by centrifugation. Sodium dodecylsulfate and beta-mercaptoethanol were added, the sample heated to 95° C. for one minute, and then electrophoresed using 15% polyacrylamide gels. The fixed gels were then treated, dried and used to expose x-ray film at -70° C.
# Pertussis toxin was incubated first at 37° C. for fifteen minutes in […] buffer A (100 mM Tris-HCl, pH 8.0 with 1 mM NaEDTA). EDTA was added to chelate divalent cations, which may promote oxidation of free --SH groups. During this incubation, DTT and ATP were present in concentrations of 1 mM each, and CHAPS was present in a concentration of 1 weight percent. Labelled iodoacetate was then added ([…], 12.5 mM), and the tube incubated on ice for twenty hours. The sample was then mixed with sodium dodecylsulfate and β-mercaptoethanol, heated at 95° C. for one minute, and electrophoresed. After electrophoresis, the gel was fixed, treated with Fluorohance (Research Products International), dried and used to expose x-ray film.
# [2] = first incubation: ATP, CHAPS, 18 hours at 0-4°
# [3] = first incubation: ATP, DTT, CHAPS, 6 minutes at 0-4°
# [4] = first incubation: ATP, DTT, CHAPS, 18 hours at 0-4°
# [5] = first incubation: CHAPS, 18 hours at 0-4°
# [6] = first incubation: DTT, CHAPS, 18 hours at 0-4°
# [7] = first incubation: none, 15 minutes at 30° C. followed by 18 hours at 0-4°
# Sequence of pertussis toxin (P04977 35-269 limits assumed): as the sequence (P04977 35-269 limits assumed) above
smiles,measurement,setting,value
O=C(O)CI [iodoacetate],NADase activity,pertussis toxin; [2],110 pmol per μg per hour
same,percent of activity with no addition to second incubation,pertussis toxin; [2],85%
same,NADase activity,pertussis toxin; [3],17 pmol per μg per hour
same,percent of activity with no addition to second incubation,pertussis toxin; [3],17%
same,NADase activity,pertussis toxin; [4],3 pmol per μg per hour
same,percent of activity with no addition to second incubation,pertussis toxin; [4],3%
same,NADase activity,pertussis toxin; [5],171 pmol per μg per hour
same,percent of activity with no addition to second incubation,pertussis toxin; [5],92%
same,NADase activity,pertussis toxin; [6],151 pmol per μg per hour
same,percent of activity with no addition to second incubation,pertussis toxin; [6],79%
same,NADase activity,pertussis toxin; [7],59 pmol per μg per hour
same,percent of activity with no addition to second incubation,pertussis toxin; [7],116%
same,Amount of label incorporated into the S1 subunit,"[1]; DTT 1 mM, ATP 1 mM, CHAPS 1%, labelled iodoacetate on ice for twenty hours",equal to the sum of that incorporated into the S2 and S3 subunits
same,"Carboxymethylation of toxin subunits, in words","[1]; after activation of the toxin by DTT, ATP and CHAPS",carboxymethylated the enzymatic S1 subunit
same,Extent of carboxymethylation of the toxin,[1]; pH lowered from 8 to 7,decreases somewhat
